Like-named read-outs stand apart in the source and are kept apart here.
Legend:
[1] = system: HIV-1 constructs containing mutant IN G140S-Q148H; experiment: microbe, parasite or virus in culture; assay type: cell-based; details: for EC50: Human immunodeficiency virus 1
From the text: (§1) Single-Round HIV-1 Infectivity Assay.
(§2) Human embryonyl kidney cell culture cell line 293 was acquired from the American type Culture Collection (ATCC).
(§3) The virus-containing supernatants were then harvested, clarified by low-speed centrifugation, filtrated, and diluted for preparation in infection assays. […] Activity was normalized to infectivity in the absence of target compounds. KaleidaGraph (Synergy Software, Reading, Pa.) was used to perform regression analysis on the data. EC50 values were determined from the fit model.
(§4) pNLNgoMIVR^−ΔEnv.LUC has been described previously (Zhao et al. 2008). The integrase codon reading frame was removed from pNLNgoMIVR^−ΔEnv LUC (between KpnI and SalI sites) and placed between the KpnI and SalI sites of pBluescript II KS+. Using that construct as the wild-type template, we prepared the following HIV-1 Integrase-resistant mutants via the QuikChange II XL (Stratagene, La Jolla, Calif.) site-directed mutagenesis protocol: H51Y, T66I, E92Q, G118R, Y143R, Q148H, Q148K, N155H, R263K, G140S+Q148H, G140A+Q148K, E138K+Q148K, and H51Y+R263K. The following sense with cognate antisense (not shown) oligonucleotides (Integrated DNA Technologies, Coralville, Iowa) were used in the mutagenesis: H51Y, 5′-[…]-3; T66I, 5′-[…]-3′; E92Q, 5′-[…]-3′; G118R, 5′-[…]-3′; E138K, 5′-[…]-3; G140A, 5′-[…]-3; G140S, 5′-[…]-3′; Y143R, 5′-[…]-3′; Q148H, 5′-[…]-3′; Q148K, 5′-[…]-3; N155H, 5′-[…]-3′; R263K 5′-[…]-3′. The double mutation G140S+Q148H was constructed by using the previously generated Q148H mutant and the appropriate oligonucleotide for the 2nd mutation, G140S. The double mutation G140A+Q148K was made by using the Q148K mutant and the appropriate oligonucleotide for the 2nd mutation, G140A. The double mutation E138K+Q148K was made by using the Q148K mutant and the appropriate oligonucleotide for the 2nd mutation, E138K. The double mutation H51Y+R263K was constructed by using the previously generated H51Y mutant and the appropriate oligonucleotides for the 2nd mutation, R263K. The DNA sequence of each construct was verified independently by DNA sequence determination. […] These DNA sequences were additionally checked independently by DNA sequence determination.

[2] = system: HIV-1 constructs containing mutant IN Y143R; experiment: microbe, parasite or virus in culture; assay type: cell-based; details: for EC50: Human immunodeficiency virus 1
From the text: as §1, §2, §3, §4

[3] = system: HIV-1 constructs containing mutant IN N155H; experiment: microbe, parasite or virus in culture; assay type: cell-based; details: for EC50: Human immunodeficiency virus 1
From the text: as §1, §2, §3, §4

[4] = molecular target: HIV-1 integrase (Human immunodeficiency virus type 1 group M subtype B, UniProt P12497); experiment: biochemical; assay type: biochemical
Method: In Vitro Integrase Assay.
Integrase reactions were carried out by adding drugs or an equivalent volume of 100% dimethyl sulfoxide (DMSO; used as the drug solvent) to a mixture of 20 nM DNA and 400 nM integrase in 50 mM morpholinepropanesulfonic acid (pH 7.2), 7.5 mM MgCl2, and 14 mM 2-mercaptoethanol. Reactions were performed at 37° C. for 2 h and quenched by the addition of an equal volume of loading buffer (formamide containing 1% sodium dodecyl sulfate, 0.25% bromophenol blue, and xylene cyanol). […] Dried gels were visualized using a Typhoon 8600 (GE Healthcare, Piscataway, N.J.). Densitometric analyses were performed using ImageQuant 5.1 software from GE Healthcare.

[5] = in vitro; assay type: cell-based, human; details: human, 50% reduction in the level of ATP in HOS cells
Method: Cellular Cytotoxicity Assay.
On the day of the screen, cells were treated with compounds at the appropriate concentration range chosen and incubated at 37° C. for 48 hrs. Cytotoxicity was measured by monitoring ATP levels via a luciferase reporter assay. Cells were lysed in 50 μL cell lysis buffer (PerkinElmer, Waltham, Mass.) and shaken at 700 rpm at room temperature for 5 mins After the addition of 50 μL of ATPlite buffer (PerkinElmer) directly onto the lysed cells and shaking at 700 rpm at room temperature for 5 mins, ATP levels were monitored by measuring luciferase activity using a microplate reader. Activity was normalized to cytotoxicity in the absence of target compounds. KaleidaGraph (Synergy Software, Reading, Pa.) was used to perform regression analysis on the data. CC50 values were determined from the fit model.

[6] = system: HIV-1 constructs containing wild-type IN; experiment: microbe, parasite or virus in culture; assay type: cell-based; details: for EC50: Human immunodeficiency virus 1
From the text: as §1, §2, §3

[7] = Table 8, read-out: EC50 (nM, IN mutants) G140S/Q148H
[8] = Table 8, read-out: EC50 (nM, IN mutants) Y143R
[9] = Table 8, read-out: EC50 (nM, IN mutants) N155H
[10] = Table 7, 3′-processing, read-out: IC50 (μM) 3′-P
[11] = Table 7, strand transfer, read-out: IC50 (μM) ST
[12] = Table 8, WT IN, read-out: EC50 (nM, WT)
[13] = Table 10, strand transfer, read-out: IC50 (nM, ST)
[14] = Table 3, G140S-Q148H double mutant, read-out: EC50 (nM, IN Mutants) SH
[15] = Table 3, read-out: EC50 (nM, IN Mutants) Y143R
[16] = Table 3, read-out: EC50 (nM, IN Mutants) N155H
[17] = Table 1, 3′-processing, read-out: IC50 Values 3′-Processing
[18] = Table 1, strand transfer, read-out: IC50 Values Strand transfer
[19] = Table 2, cells infected with lentiviral vector harboring WT IN, read-out: EC50
[20] = Table 3, WT IN, read-out: EC50 (nM, WT)

Structure (SMILES) | EC50 [1, 7] [nM] | EC50 [2, 8] [nM] | EC50 [3, 9] [nM] | IC50 [4, 10] [nM] | IC50 [4, 11] [nM] | CC50 ([5]; Table 8) [nM] | EC50 [6, 12] [nM] | EC50 [1, 14] [nM] | EC50 [2, 15] [nM] | EC50 [3, 16] [nM] | CC50 ([5]; Table 3) [nM] | Si (selectivity index) [6] | EC50 [6, 20] [nM] | further results
Nc1c(C(=O)NCc2ccc(F)cc2F)c(=O)n(O)c2ncc(CCCOCCO)cc12 [XZ432, 4-Amino-N-(2,4-difluorobenzyl)-1-hydroxy-6-(3-(2-hydroxyethoxy)propyl)-2-oxo-1,2-dihydro-1,8-naphthyridine-3-carboxamide] | 35.3 | 1.2 | 4.2 | 1500 ± 400 | 2.5 ± 0.4 | > 250000 | 1.6 | – | – | – | – | – | – | –
CS(=O)(=O)CCc1cnc2c(c1)c(N)c(C(=O)NCc1ccc(F)cc1F)c(=O)n2O [XZ445, 4-Amino-N-(2,4-difluorobenzyl)-1-hydroxy-6-(2-(methylsulfonyl)ethyl)-2-oxo-1,2-dihydro-1,8-naphthyridine-3-carboxamide] | 118 | 27.5 | 32.8 | – | – | 95400 | 27 | – | – | – | – | – | – | IC50 [4, 13]: ~0.07 nM
O=C(NCc1ccc(F)cc1F)c1c(O)c2cc(CCCCCO)cnc2n(O)c1=O [XZ421, N-(2,4-Difluorobenzyl)-1,4-dihydroxy-6-(5-hydroxypentyl)-2-oxo-1,2-dihydro-1,8-naphthyridine-3-carboxamide] | 28.5 | 8.3 | 31.6 | 14300 ± 1100 | 12.4 ± 2.6 | > 250000 | 23.7 | – | – | – | – | – | – | –
O=C(NCc1ccc(F)c(F)c1)c1c(O)c2cccnc2n(O)c1=O [XZ367, N-(3,4-difluorobenzyl)-1,4-dihydroxy-2-oxo-1,2-dihydro-1,8-naphthyridine-3-carboxamide] | – | – | – | – | – | – | – | 507 ± 125 | 44.5 ± 12.2 | 189 ± 70.1 | 192000 ± 19000 | 9,585 | 20 ± 6.2 | Integrase Mutants SH (G140S-Q148H), fold-change in EC50 relative to WT [1]: 25 x; Integrase Mutants Y143R, fold-change in EC50 relative to WT [2]: 2 x; Integrase Mutants N155H, fold-change in EC50 relative to WT [3]: 9 x; IC50 [4, 17]: 3600 ± 600 nM; IC50 [4, 18]: 40 ± 10 nM; CC50 ([5]; Table 2): 192000 nM; SI [6]: 9,585; EC50 [6, 19]: 20 nM
Nc1c(C(=O)NCc2ccc(F)cc2F)c(=O)n(O)c2ncc(CCC(=O)O)cc12 [XZ444, 3-(5-Amino-6-((2,4-difluorobenzyl)carbamoyl)-8-hydroxy-7-oxo-7,8-dihydro-1,8-naphthyridin-3-yl)propanoic acid] | 195 | 4.9 | 10.3 | – | – | > 250000 | 1.9 | – | – | – | – | – | – | IC50 [4, 13]: 3.9 ± 1.3 nM
Nc1c(C(=O)NCc2ccc(F)cc2F)c(=O)n(O)c2ncc(-c3ccccc3)cc12 [XZ420, 4-Amino-N-(2,4-difluorobenzyl)-1-hydroxy-2-oxo-6-phenyl-1,2-dihydro-1,8-naphthyridine-3-carboxamide] | 39.6 | 3.7 | 18.7 | 17900 ± 1600 | 1.6 ± 0.3 | 184000 | 3.4 ± 0.7 | – | – | – | – | – | – | –
COC(=O)[C@@H](C)Nc1c(C(=O)NCc2ccc(F)cc2F)c(=O)n(O)c2ncccc12 [XZ395, (R)-methyl 2-((3-((2,4-difluorobenzyl)carbamoyl)-1-hydroxy-2-oxo-1,2-dihydro-1,8-naphthyridin-4-yl)amino)propanoat] | – | – | – | – | – | – | – | 89.3 ± 26.3 | 8.1 ± 1.7 | – | > 250000 | – | 11.3 ± 4.7 | –
COc1ccc2c(N)c(C(=O)NCc3ccc(F)cc3F)c(=O)n(O)c2n1 [XZ406, 4-amino-N-(2,4-difluorobenzyl)-1-hydroxy-7-methoxy-2-oxo-1,2-dihydro-1,8-naphthyridine-3-carboxamide] | – | – | – | – | – | – | – | – | – | – | – | – | – | EC50 ([1]; Table 5, G1405-Q148H double mutant, read-out: EC50 (nM, IN Mutants) SH): 3600 ± 1600 nM; EC50 ([2]; Table 5, read-out: EC50 (nM, IN Mutants) Y143R): 62.2 ± 25.6 nM; EC50 ([3]; Table 5, read-out: EC50 (nM, IN Mutants) N155H): 400 ± 101 nM; IC50 ([4]; Table 4, 3′-processing, read-out: IC50 (3^+-Processing)): 18000 ± 2000 nM; IC50 ([4]; Table 4, strand transfer, read-out: IC50 (Strand Transfer)): 11 ± 2 nM; CC50 ([5]; Table 5): 2200 ± 430 nM; EC50 ([6]; Table 5, WT IN, read-out: EC50 (nM, WT)): 30.3 ± 9.1 nM; SI ([6]; Table 5, ratio of CC50 to EC50): 73
O=C(NCc1ccc(F)c(Cl)c1)c1c(O)c2cccnc2n(O)c1=O [XZ365, N-(3-chloro-4-fluorobenzyl)-1,4-dihydroxy-2-oxo-1,2-dihydro-1,8-naphthyridine-3-carboxamide] | – | – | – | – | – | – | – | 489 ± 61.8 | 53.6 ± 9.2 | 148 ± 8.3 | 102000 ± 17800 | 2,920 | 34.9 ± 12.3 | Integrase Mutants SH (G140S-Q148H), fold-change in EC50 relative to WT [1]: 14 x; Integrase Mutants Y143R, fold-change in EC50 relative to WT [2]: 2 x; Integrase Mutants N155H, fold-change in EC50 relative to WT [3]: 4 x; IC50 [4, 17]: 4700 ± 700 nM; IC50 [4, 18]: 27 ± 6 nM; CC50 ([5]; Table 2): 102000 nM; SI [6]: 2,911; EC50 [6, 19]: 35 nM
O=C(NCc1ccc(F)cc1F)c1c(Nc2ccccc2)c2cccnc2n(O)c1=O [XZ377, N-(2,4-difluorobenzyl)-1-hydroxy-2-oxo-4-(phenylamino)-1,2-dihydro-1,8-naphthyridine-3-carboxamide] | – | – | – | – | – | – | – | – | 24.9 ± 6.4 | 110 ± 17.2 | > 250000 | >17,857 | 14.2 ± 1.9 | IC50 ([4]; read-out: IC50 (3^+-Processing)): 6900 ± 1100 nM; IC50 ([4]; read-out: IC50 (Strand Transfer)): 18 ± 6 nM

Reference: patent US9676771B2, “Compounds for inhibiting drug-resistant strains of HIV-1 integrase” (priority 2013, dated 2017)
